The record followed here is patent publication US20090196942A1, “TOPICAL COMPOSITIONS CONTAINING CITRUS JABARA EXTRACT” (priority 2008, published 2009).

This assay deals with rat basophil leukemia cells (line RBL-2H3). Put plainly: Histamine release from calcium ionophore A23187-stimulated RBL-2H3 cells (Histamine ELISA). The assay is classed as cell-based. To be noted: Calcium Ionophore 2 μM, supernatant histamine by ELISA. The method, then:
Citrus Jabara extract was tested to determine its effectiveness in blocking histamine release. Histamine is released by skin and tissues in response to immune challenge. Ingredients that will block the release of histamine improve the soothing properties of skin care products into which they are incorporated. To perform the test, rat basophil leukemia cells (line RBL-2H3) were grown in Dulbecco's Modified Eagle Medium (DMEM) with 10% heat inactivated fetal calf serum, and seeded in 24 well plates at 2.5×10^5 cells/well. The cells were grown overnight and the culture media was removed from the wells and replaced with 1 ml of PIPES buffer (100 mM NaCl, 5 mM KCl, 0.4 mM MgCl2, 1 mM CaCl2, and 5.6 mM D-glucose), pH 7.2. This buffer is known to reduce the spontaneous release of histamine. Stock solutions were prepared: (1) Positive Control: A 10 mM stock solution of diosmetin in DMSO; (2) Active: Citrus Jabara powder—100 mg/ml in DMSO; (3) Calcium Ionophore: 2 mM in DMSO (Sigma Calcium Ionophore A23187). The Control was added to four separate wells varying the final concentration of the Control in each well to 1, 3, 10, and 30 μM. The Active was added to four other wells in varying percentage concentrations ranging from 0.01%, .05%, 0.1%, and 0.5% w/v in each plate. One well was left untreated with cells only. Another single well contained DMSO at a final concentration of less than 1% v/v. […]
In general terms: In an ELISA, binding on a coated surface is turned into a signal by an enzyme label.

Take `COc1ccc(-c2cc(=O)c3c(O)cc(O)cc3o2)cc1O` [diosmetin]: the inhibition at 30 µM is 85%.

Broadly, the inhibition is the change of the read-out against control, counted positive when it falls.
